Results on six compounds are retold here after patent US12201633B2, “Compounds and methods for treatment of visceral pain” (Arena Pharmaceuticals, Inc., priority 2017, dated 2025).

In assay [1] the target is T1, human CB2 receptor (Homo sapiens, UniProt P34972). Kind of assay: HTRF assay for direct cAMP measurement, CB2. Type of assay: cell-based. Further details: 93-0164 (CHO-K1 EA-Arrestin parental line); host or cells: CHO-K1 EA-Arrestin, clone #61. (Time-resolved FRET reads energy transfer from a long-lived donor to a nearby acceptor.)
Assay [2] concerns the target T1, human CB2 receptor. Description: PathHunter β-arrestin assay, CB2.
Assay [3] addresses T2, hCB1 (Homo sapiens, UniProt P21554). Kind of assay: HTRF assay for direct cAMP measurement, CB1. Further details: 93-0164 (CHO-K1 EA-Arrestin parental line); host or cells: CHO-K1 EA-Arrestin, clone #3. Type of assay: cell-based.
Source text: Compounds were also screened for agonists and inverse agonists of the CB1 receptor (e.g., human CB1 receptor) using HTRF® assay for direct cAMP measurement (Gabriel et al., ASSAY and Drug Development Technologies, 1:291-303, 2003) in recombinant CHO-K1 cells stably transfected with the CB1 receptor. […] An agonist of the CB1 receptor was detected in the HTRF® assay for direct cAMP measurement as a compound which decreased cAMP concentration. An inverse agonist of the CB1 receptor was detected in the HTRF® assay for direct cAMP measurement as a compound which increased cAMP concentration. The HTRF® assay also was used to determine EC50 values for CB1 receptor agonists and inverse agonists.
Principle of the assay: The HTRF® assay kit was purchased from Cisbio-US, Inc. (Bedford, MA; Catalog #62AM4PEC). The HTRF® assay supported by the kit is a competitive immunoassay between endogenous cAMP produced by the CHO-K1 cells and tracer cAMP labeled with the dye d2. The tracer binding is visualized by a monoclonal anti-cAMP antibody labeled with Cryptate. The specific signal (i.e., fluorescence resonance energy transfer, FRET) is inversely proportional to the concentration of unlabeled cAMP in the standard or sample.
The fluorescence ratio of the samples (test compound or compound buffer) was calculated and used to deduce respective cAMP concentrations by reference to the cAMP standard curve. […]
Assay [4] deals with male Sprague Dawley rats, MIA model of osteoarthritis. Description: Monosodium iodoacetate (MIA) model of osteoarthritis pain. Type of assay: in vivo, rat. The following applies: 3, 10 and 30 mg/kg orally, one hour after dosing, vehicle PEG400; FIG. 2. The source says: Injection of monosodium iodoacetate (MIA) into a joint (Kalbhen, 1987) inhibits the activity of glyceraldehyde-3-phosphate dehydrogenase in chondrocytes, resulting in disruption of glycolysis and eventually in cell death. The progressive loss of chondrocytes results in histological and morphological changes of the articular cartilage, closely resembling those seen in osteoarthritis patients.
The osteoarthritis was induced in 200 g male Sprague Dawley rats. […]
Typically, during disease progression, there was an inflammation period of 0-7 days post-intra-articular injection followed by progressive degeneration of the cartilage and subchondral bone from days 14-55. […] Tactile allodynia was measured via von Frey assay, hind limb paw weight distribution was monitored using an incapacitence tester (Columbus Instruments, Columbus, OH, USA) and hind limb grip strength was measured using a grip strength meter (Columbus Instruments, Columbus, OH, USA). […] Hind paw weight distribution was determined by placing rats in a chamber so that each hind paw rests on a separate force plate of the incapacitence tester. The force exerted by each hind limb (measured in grams) is averaged over a 3 second period. Three measurements were taken for each rat, and the change in hind paw weight distribution calculated. […]

The subject of assay [5] is male Sprague Dawley rats, paclitaxel-induced allodynia. Kind of assay: Paclitaxel-induced allodynia. Type of assay: in vivo, rat. The conditions noted are these: 10 mg/kg orally, FIG. 3. How it is done: Animals: Male Sprague Dawley rats [200-250 g] (Harlan Laboratories Inc., Livermore, CA) were housed three per cage and maintained in a humidity-controlled (40-60%) and temperature-controlled (68-72° F.) facility on a 12 h:12 h light/dark cycle (lights on at 6:30 am) with free access to food (Harlan Teklad, Orange, CA, Rodent Diet 8604) and water. Rats were allowed one week of habituation to the animal facility before starting treatment.
Induction of Allodynia: Rats were treated intraperitoneally, with 2 mg/kg of paclitaxel (Sigma Aldrich, Saint Louis, MO) in 10% Cremophor vehicle (500 μL) on days 0, 2, 4, and 6.
Clinical scoring: Tactile allodynia was tested using von Frey filaments. Briefly, the von Frey assay was performed using the standardized up down method with von Frey filaments, that determine the tactile sensitivity of the paw. By applying the increasingly or decreasingly thicker filaments to the paw in a logarithmic scale of actual force, a linear scale of perceived intensity is determined.
Drug treatment: Eight days after the start of paclitaxel dosing, a baseline measurement (von Frey assay) was performed prior to dosing of compounds. […] As a positive control, rats were dosed intraperitoneally with 100 mg/kg gabapentin in water. The dosing volume for oral and peritoneal treatment was 500 μL. […]

Assay [6] concerns male Sprague Dawley rats, FCA-induced hyperalgesia. Description: FCA-induced hyperalgesia model of inflammatory pain. In kind it is in vivo, rat. The conditions noted are these: 0.1, 1, 3, 10 and 30 mg/kg orally, 1-hour post dosing, vehicle PEG400; FIG. 1. As for the experimental part:
Animal info: Male Sprague Dawley rats from Harlan (200-225 g when received) were used. Upon arrival, rats were housed 4 per cage in shoe-box polycarbonate cages with wire tops, wood chip bedding and suspended food and water bottles. Animals were acclimated for 5-7 days prior to being injected with Freund's complete adjuvant (FCA) (Sigma; catalog #5881).
Experimental procedure: 2 days (48 h) before testing compounds, baseline readings of all rats were taken right before FCA injection. Rats were then injected with 50 μL FCA containing 1 mg/mL Mtb (Mycobacterium tuberculosis) in right hind footpad under inhalation anesthesia (isoflurane). 48 hours after FCA injection, readings were taken as pre-dosing baseline and then rats were dosed orally with 0.5 mL of vehicle or compound (0.5 mL per 250 g rat). Readings were taken again at 1-hour post dosing. All readings were taken with an Analgesy-Meter (Ugo Basile) which measures mechanical hyperalgesia via paw pressure.
Clinical scoring: FCA-induced hyperalgesia was tested with an Analgesy-Meter. Briefly, the Analgesy Meter applied an increasing pressure to the right hind paw. The paw withdrawal threshold was the pressure leading to withdrawal.
Meanwhile a group of rats were dosed orally with 50 mg/kg of Diclofenac as a positive control. Readings were taken again at 1-hour post dosing. Dosing volume was 500 μL per 250 g rat.

The target of assay [7] is T2, hCB1. Kind of assay: PathHunter β-arrestin assay, CB1.
For assay [8], the target named is T2, hCB1. Kind of assay: Radioligand binding assay, hCB1. The conditions noted are these: Table C.
The subject of assay [9] is male Sprague-Dawley rats, STZ-induced PDPN. Description: Streptozotocin-induced painful diabetic peripheral neuropathy (PDPN) model. Type of assay: in vivo, rat. The following applies: 10 mg/kg orally in 0.5% methylcellulose; 1, 4 and 6 hours post-dosing; FIG. 9, FIG. 10. How it is done: Male Sprague-Dawley rats were injected intraperitoneally with 50 mg/kg of streptozotocin (STZ) in sodium citrate buffer. 10% sucrose water was provided ad libitum for the first 48 hours post-STZ followed by regular drinking water. Rats were monitored once weekly for blood glucose levels and body weights. Development of tactile allodynia over time was analyzed using Von Frey filaments and a 50% withdrawal threshold was determined using Dixon's up-down procedure. […] Tactile allodynia was evaluated at 1, 4 and 6 hours post-dosing.

In assay [10] the test system is rats following ligation of spinal nerves. The following applies: administered systemically; cited from earlier work.

By EC50 is commonly meant the midpoint of the concentration-response curve. The Ki is the equilibrium dissociation constant of an inhibitor or competing ligand from its target.

T2 sequence (P21554 whole entry): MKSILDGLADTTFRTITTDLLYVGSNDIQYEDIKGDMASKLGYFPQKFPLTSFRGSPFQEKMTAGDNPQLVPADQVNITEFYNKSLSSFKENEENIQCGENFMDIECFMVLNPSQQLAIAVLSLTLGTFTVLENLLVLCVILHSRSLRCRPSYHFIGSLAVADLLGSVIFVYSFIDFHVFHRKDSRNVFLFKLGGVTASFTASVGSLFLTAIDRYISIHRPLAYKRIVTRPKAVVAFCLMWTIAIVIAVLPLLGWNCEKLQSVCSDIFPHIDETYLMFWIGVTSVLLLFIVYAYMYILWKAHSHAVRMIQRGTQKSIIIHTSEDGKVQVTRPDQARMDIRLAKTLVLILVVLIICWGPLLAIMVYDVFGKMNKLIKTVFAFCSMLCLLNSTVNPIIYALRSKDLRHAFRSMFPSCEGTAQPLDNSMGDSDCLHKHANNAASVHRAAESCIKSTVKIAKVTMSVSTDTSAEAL
T1 sequence (P34972 whole entry): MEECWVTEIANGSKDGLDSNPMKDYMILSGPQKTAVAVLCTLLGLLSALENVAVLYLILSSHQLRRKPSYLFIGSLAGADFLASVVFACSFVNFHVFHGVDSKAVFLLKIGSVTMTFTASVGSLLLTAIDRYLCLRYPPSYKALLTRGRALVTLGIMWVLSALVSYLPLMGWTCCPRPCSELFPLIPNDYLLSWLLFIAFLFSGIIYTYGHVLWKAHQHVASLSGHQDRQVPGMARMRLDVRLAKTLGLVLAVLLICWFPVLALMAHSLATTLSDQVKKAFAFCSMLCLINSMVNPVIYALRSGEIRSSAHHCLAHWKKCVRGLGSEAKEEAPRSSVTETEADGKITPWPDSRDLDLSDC

Consider `CC(C)(CO)NC(=O)c1nn(-c2ccc(Cl)cn2)c2c1C[C@H]1C[C@@H]21` [Compound 151, (1aR,5aR)-2-(5-Chloro-pyridin-2-yl)-1a,2,5,5a-tetrahydro-1H-2,3-diaza-cyclopropa[a]pentalene-4-carboxylic acid (2-hydroxy-1,1-dimethyl-ethyl)-amide], for which the EC50 at human CB2 receptor [1] is 3.83 nM; on human CB2 receptor [2] it was 92.1 nM; on hCB1 [3] it was 72500 nM.

As to `CC(C)(CO)NC(=O)c1nn(-c2ccc(F)cc2F)c2c1C[C@H]1C[C@@H]21` [Compound 493, (1aR,5aR)-2-(2,4-Difluoro-phenyl)-1a,2,5,5a-tetrahydro-1H-2,3-diaza-cyclopropa[a]pentalene-4-carboxylic acid (2-hydroxy-1,1-dimethyl-ethyl)-amide], in assay [4], the “Paw withdrawal threshold (PWT) in comparison with vehicle” value was “Increase in paw withdrawal threshold (PWT)”. Besides, the “Time of maximum efficacy post-dosing” value in [5] came out at 1 h. Further, in assay [5] (von Frey 30, 60 and 180 minutes after dosing), the “Paw withdrawal threshold (PWT) in comparison with vehicle and gabapentin” value is recorded as “increase in paw withdrawal threshold (PWT)”. The “Paw withdrawal threshold (PWT) in comparison with the vehicle” value in assay [6] is on record as “increase in paw withdrawal threshold (PWT)”.

Take `CNC(=O)[C@@H](NC(=O)c1nn(-c2cnccn2)c2c1C[C@H]1C[C@@H]21)C(C)(C)C` [Compound 667, (1aR,5aR)-2-Pyrazin-2-yl-1a,2,5,5a-tetrahydro-1H-2,3-diaza-cyclopropa[a]pentalene-4-carboxylic acid [2,2-dimethyl-1-((S)-methylcarbamoyl)-propyl]-amide]: the EC50 came out at 0.3 nM at human CB2 receptor [1], 1.53 nM on human CB2 receptor [2], 145 nM at hCB1 [7] and 195 nM on hCB1 [3].

Turning to `CNC(=O)[C@@H](NC(=O)c1nn(-c2c[n+]([O-])ccn2)c2c1C[C@@H]1C[C@H]21)C(C)(C)C` [Compound 701, (1aS,5aS)-2-(4-Oxy-pyrazin-2-yl)-1a,2,5,5a-tetrahydro-1H-2,3-diaza-cyclopropa[a]pentalene-4-carboxylic acid ((S)-2,2-dimethyl-1-methylcarbamoyl-propyl)-amide], at hCB1 [8], the affinity corresponds to a Ki of 105 nM.

`CC(C)(NC(=O)c1nn(-c2c[n+]([O-])ccn2)c2c1C[C@@H]1C[C@H]21)C(F)(F)F` [Compound 919, (1aS,5aS)-2-(4-Oxy-pyrazin-2-yl)-1a,2,5,5a-tetrahydro-1H-2,3-diaza-cyclopropa[a]pentalene-4-carboxylic acid (2,2,2-trifluoro-1,1-dimethyl-ethyl)-amide]: the figures for the EC50 on human CB2 receptor [1] and on human CB2 receptor [2] were 0.2 nM and 2.35 nM, respectively. Also, in [9], the “Analgesic efficacy (tactile allodynia, 50% withdrawal threshold)” value was “robust and sustained analgesic efficacy over 6 hours”.

For `COc1ccc2c(c1)c(CCN1CCOCC1)c(C)n2C(=O)c1cccc(Cl)c1Cl` [GW405833], the “Hypersensitivity to mechanical stimuli” value in [10] is reported as “significantly reverses hypersensitivity to mechanical stimuli”.
